Reference: patent US20060018921A1, “Histone deacetylase inhibitors and cognitive applications” (priority 2004, published 2006)
“Also recorded” adds a separate entry of the source. Starred links: 1 amine or outer side, 2 acyl side, 3 side chain; linkers in the order of their positions; H or OH if unused. Positions of bridges follow the written chain, without caps; N, C: chain ends. Non-standard residues stand in square brackets, D forms with d. Residues, ends and D or L forms follow the SMILES beside them. Chains are numbered I, II in the order given. Actinocin(9to1) = Cc1c2oc3c(C)ccc(C(=O)[*:1])c3nc-2c(C(=O)[*:2])c(N)c1=O; NMeV = CN[C@H](C(=O)O)C(C)C; Sar = CNCC(=O)O

How the values were obtained:
[1] = test system: ERK1; assay: P-ERK1 western blot, acute hippocampal slices, area CA1; conditions: slices treated 1 h; data not shown
[2] = test system: ERK2; assay: P-ERK2 western blot, acute hippocampal slices, area CA1; conditions: for levels of P-ERK2: slices treated 1 h, FSK 50 μM with 100 μM Ro20-1724, U0126 20 μM, 4αP 3 μM, dFSK 50 μM with 100 μM Ro20-1724, TSA; for levels of P-ERK2 / effect of PDA on P-ERK2 after pretreatment with MEK inhibitor: PDA 3 μM; for levels of P-ERK2 / effect of NMDA on P-ERK2 after pretreatment with MEK inhibitor / effect of FSK on P-ERK2 after pretreatment with MEK inhibitor / effect of PDA on P-ERK2 after pretreatment with MEK inhibitor: PD98059 50 μM; for effect of NMDA on P-ERK2 after pretreatment with MEK inhibitor / effect of FSK on P-ERK2 after pretreatment with MEK inhibitor / effect of PDA on P-ERK2 after pretreatment with MEK inhibitor: U0126 20 μM; for effect of NMDA on P-ERK2 after pretreatment with MEK inhibitor: 100 μM NMDA 10 min; for effect of FSK on P-ERK2 after pretreatment with MEK inhibitor: FSK 50 μM with 100 μM Ro20-1724
[3] = test system: histone H3 (Lys14); assay: Acetylation of histone H3, acute hippocampal slices, area CA1; conditions: for histone H3 acetylation: slices treated 1 h, FSK 50 μM with 100 μM Ro20-1724, 4αP 3 μM, dFSK 50 μM with 100 μM Ro20-1724, U0126 20 μM, TSA 1.65 μM; for histone H3 acetylation / effect of PDA on histone H3 acetylation after pretreatment with MEK inhibitor: PDA 3 μM; for histone H3 acetylation / effect of NMDA on acetylation of histone H3 after pretreatment with MEK inhibitor / effect of FSK on histone H3 acetylation after pretreatment with MEK inhibitor / effect of PDA on histone H3 acetylation after pretreatment with MEK inhibitor: PD98059 50 μM; for effect of NMDA on acetylation of histone H3 after pretreatment with MEK inhibitor / effect of FSK on histone H3 acetylation after pretreatment with MEK inhibitor / effect of PDA on histone H3 acetylation after pretreatment with MEK inhibitor: U0126 20 μM; for effect of NMDA on acetylation of histone H3 after pretreatment with MEK inhibitor: 100 μM NMDA 10 min; for effect of FSK on histone H3 acetylation after pretreatment with MEK inhibitor: FSK 50 μM with 100 μM Ro20-1724
[4] = test system: Schaffer-collateral synapses; conditions: previous studies, Nguyen et al., 1994; cited from earlier work
[5] = test system: histone H4 (Lys5/Lys8/Lys12/Lys16); assay: Acetylation of histone H4, acute hippocampal slices, area CA1
[6] = test system: Schaffer-collateral synapses; assay: Slice electrophysiology, basal synaptic transmission (baseline fEPSP, input/output, paired-pulse facilitation, tetanus depolarization); assay type: cell-based, Sprague-Dawley rats; conditions: sodium butyrate for 20 min vs vehicle
[7] = Contextual fear conditioning, freezing behavior; conditions: for spontaneous freezing behavior on re-exposure 24 h after mock training, no shock (FIG. 11D): sodium butyrate 1.2 g/kg vs saline; for spontaneous freezing behavior during mock training, no shock (FIG. 11C): sodium butyrate 1.2 g/kg, 3 min in training chamber
[8] = Novel object recognition task; assay type: in vivo, Sprague-Dawley rats
Procedure: The effect of the exemplary histone deacetylase inhibitor sodium butyrate (NaB) on the exemplary hippocampus-dependent long-term memory paradigm of novel object recognition was determined. In the novel object task, an animal's ability to discriminate between a familiar and a novel object is tested. Novel object recognition training is performed over 4 consecutive days. During each day, animals are placed individually into a small holding cage prior to introduction to the training arena (44 cm^2). The first day consists of habituating animals to the training arena for 10 min. During the second and third days, the training arena has 8 small Duplo® Blocks (Lego®, 2 each: yellow, blue, red, green) placed 2 cm from the edge of the arena. During days 2 and 3, animals are simultaneously habituated to the Duplo blocks and tested for color and arena-position biases. On day 4, 2 distinct novel objects made from Duplo blocks (approx. 10×5×5 cm) are placed in opposite corners of the arena, 2 cm from the walls. Animals are allowed to explore the objects for 10 min. During each session in the arena, movement of the animal will be tracked by an automated video-based system (Limelight) and the arena and Duplo blocks are thoroughly rinsed with 10% EtOH to remove any scent cues left by subjects. During the final training session on day 4, exploration time of each object is tracked. […] Novel object recognition is assessed by calculating preference indices ([TimeNovel−TimeFamilar]) after exposure of animals to one familiar, and one novel object. Animals received an injection of either saline or NaB 45 min before the training session on day 4.

[9] = test system: survival motor neuron (SMN) protein; conditions: SMA lymphoid cell lines; Chang et al. (2001); cited from earlier work
[10] = test system: SMA-like mice; conditions: Chang et al. (2001), cited from earlier work
[11] = Passive avoidance task; assay type: in vivo, Sprague-Dawley rats
Procedure: The effect of the exemplary histone deacetylase inhibitor sodium butyrate (NaB) on the exemplary hippocampus-dependent long-term memory paradigm of passive avoidance was determined. In the passive avoidance task, animals associate a dark chamber with an aversive stimulus. In the passive avoidance task, animals are placed into the lighted side of a 2-chamber shuttle box (Med Associates). An open doorway in the middle of the shuttle box leads to a dark side. Animals are allowed to move into the dark side of the chamber, upon which time the door is closed and animals are allowed to explore the dark side for 5 sec prior to receiving a brief electric shock (2 sec, 0.5 mA). Animals are given an additional 5 sec of exploration time prior to removal from the shuttle box. Latency to enter the dark side of the shuttle box is recorded for all experimental animals during the training day. Passive avoidance memory is assessed by measuring latency to enter the dark side of the shuttle box, minus the latency to enter the dark side on the training day. Passive avoidance memory was only tested once from each animal to eliminate the effect of extinction. NaB (1.2 g/kg) was administered 45 min prior to passive avoidance training.

[12] = 100 μM NMDA in Mg++-free ACSF for 10 min
[13] = sodium butyrate 1.2 g/kg 1 h prior to 1-shock contextual fear conditioning, vs saline
[14] = sodium butyrate 1.2 g/kg 1 h prior to 1-shock contextual fear conditioning, vs saline, listed as NaB
[15] = NaB 45 min before the training session on day 4, vs saline
[16] = slices exposed to NaB for 40 min, data not shown
[17] = NaB 1.2 g/kg 45 min prior to training

Structure (SMILES): CCCCCCCCCC(=O)O[C@@H]1[C@@H](C)[C@@]2(O)[C@@H](C=C(CO)C[C@@]3(O)C(=O)C(C)=C[C@@H]23)[C@@H]2C(C)(C)[C@]12OC(=O)CCCCCCCCC [4αP, 4-α-phorbol 12,13-didecanoate]
- levels of P-ERK1 [1]: no affect
- levels of P-ERK2 [2]: no effect on P-ERK2
- levels of P-ERK2 ([2]; listed as 4 αP): no affect
- histone H3 acetylation [3]: no effect on H3 acetylation
- histone H3 acetylation ([3]; listed as 4 αP): no affect on the acetylation of histone H3

Structure (SMILES): OC[C@H]1O[C@@H](n2cnc3cc(Cl)c(Cl)cc32)[C@H](O)[C@@H]1O [DRB, 5,6-dichlorobenzimidazole riboside]
- basal synaptic transmission [4]: no effect on basal synaptic transmission

Structure (SMILES): CN[C@H](CC(=O)O)C(=O)O [NMDA]
- phosphorylation of ERK2 in area CA1 [2, 12]: induced significant increases in P-ERK2; also recorded: significantly increased
- acetylation of histone H3 in area CA1 [3, 12]: increased acetylation of histone H3; also recorded: significantly increased
- acetylation of histone H4 in area CA1 ([5]; 100 μM NMDA 10 min, with or without U0126 or PD98059 pretreatment): no affect on acetylation of histone H4

Structure (SMILES): COc1cccc(-c2cc(=O)c3ccccc3o2)c1N [PD98059]
- effect of NMDA on P-ERK2 after pretreatment with MEK inhibitor [2]: blocked; also recorded: inhibited the affect of NMDA on P-ERK2
- effect of FSK on P-ERK2 after pretreatment with MEK inhibitor [2]: blocked
- effect of PDA on P-ERK2 after pretreatment with MEK inhibitor [2]: blocked
- levels of P-ERK2 [2]: diminished
- effect of NMDA on acetylation of histone H3 after pretreatment with MEK inhibitor [3]: blocked; also recorded: inhibited the affect of NMDA on acetylation of histone H3
- effect of FSK on histone H3 acetylation after pretreatment with MEK inhibitor [3]: blocked; also recorded: inhibited
- effect of PDA on histone H3 acetylation after pretreatment with MEK inhibitor [3]: blocked; also recorded: inhibited
- histone H3 acetylation [3]: no effect on basal levels of acetylation of histone H3

Structure (SMILES): CC(=O)O[C@@H]1[C@@H](C)[C@@]2(O)[C@@H](C=C(CO)C[C@]3(O)C(=O)C(C)=C[C@@H]23)[C@@H]2C(C)(C)[C@]12OC(C)=O [PDA, phorbol 12,13-diacetate]
- levels of P-ERK1 [1]: significantly increased
- levels of P-ERK2 [2]: significantly increased; also recorded: significant increases in levels of P-ERK2
- histone H3 acetylation [3]: significantly increased acetylation of histone H3

Structure (SMILES): N#CC(=C(/N)Sc1ccccc1N)/C(C#N)=C(\N)Sc1ccccc1N [U0126]
- effect of NMDA on P-ERK2 after pretreatment with MEK inhibitor [2]: blocked; also recorded: inhibited the affect of NMDA on P-ERK2
- effect of FSK on P-ERK2 after pretreatment with MEK inhibitor [2]: blocked
- effect of PDA on P-ERK2 after pretreatment with MEK inhibitor [2]: blocked
- levels of P-ERK2 [2]: diminished
- effect of NMDA on acetylation of histone H3 after pretreatment with MEK inhibitor [3]: blocked; also recorded: inhibited the affect of NMDA on acetylation of histone H3
- effect of FSK on histone H3 acetylation after pretreatment with MEK inhibitor [3]: blocked; also recorded: inhibited
- effect of PDA on histone H3 acetylation after pretreatment with MEK inhibitor [3]: blocked; also recorded: inhibited
- histone H3 acetylation [3]: no effect on basal levels of acetylation of histone H3

Structure (SMILES): Cc1c2oc3c(C)ccc(C(=O)N[C@@H]4C(=O)N[C@H](C(C)C)C(=O)N5CCC[C@H]5C(=O)N(C)CC(=O)N(C)[C@@H](C(C)C)C(=O)O[C@@H]4C)c3nc-2c(C(=O)N[C@@H]2C(=O)N[C@H](C(C)C)C(=O)N3CCC[C@H]3C(=O)N(C)CC(=O)N(C)[C@@H](C(C)C)C(=O)O[C@@H]2C)c(N)c1=O [actinomycin D, Actinomycin D] (I: T[dV]P[Sar][NMeV] / II: T[dV]P[Sar][NMeV]; ester I:1-I:C, II:1-II:C; linker I:N-II:N via Actinocin(9to1))
- basal synaptic transmission [4]: no effect on synaptic transmission

Structure (SMILES): C=C[C@@]1(C)CC(=O)[C@@H]2[C@@]3(C)CCCC(C)(C)[C@@H]3[C@H](O)[C@H](OC(C)=O)[C@@]2(C)O1 [dFSK, 1,9 dideoxyforskolin]
- levels of P-ERK1 [1]: no affect
- levels of P-ERK2 [2]: no affect; also recorded: no effect on P-ERK2
- histone H3 acetylation [3]: no affect on the acetylation of histone H3; also recorded: no effect on H3 acetylation

Structure (SMILES): CCCC(=O)[O-].[Na+] [sodium butyrate]
- input/output relationships [6]: No significant differences
- paired-pulse facilitation [6]: unaffected
- input/output relationships ([6]; listed as NaB): no significant affect on input/output relationships
- paired-pulse facilitation ([6]; listed as NaB): no significant affect
- freezing behavior during training (FIG. 11A) [7, 13]: unaffected
- freezing behavior during training (FIG. 11E, short-term memory study) [7, 13]: unaffected
- freezing behavior on re-exposure to the training chamber 24 h after training (FIG. 11B) [7, 13]: significantly more freezing behavior than animals injected with saline
- freezing behavior during training (FIG. 11A) [7, 14]: no affect on freezing behavior observed during training
- freezing behavior during training (FIG. 11E, short-term memory study) [7, 14]: no significant differences were seen in freezing behavior
- freezing behavior on re-exposure 1 h after training, short-term memory (FIG. 11F) [7, 14]: no effect on freezing behavior
- spontaneous freezing behavior on re-exposure 24 h after mock training, no shock (FIG. 11D) [7]: no affect on spontaneous freezing behavior
- spontaneous freezing behavior on re-exposure 24 h after mock training, no shock (FIG. 11D) ([7]; listed as NaB): no significant differences in the amount of freezing behavior
- spontaneous freezing behavior during mock training, no shock (FIG. 11C) ([7]; vs saline): unaffected
- spontaneous freezing behavior during mock training, no shock (FIG. 11C) ([7]; vs saline, listed as NaB): no acute effects on freezing behavior
- novel object recognition (preference index) 1 day after training [8, 15]: performed significantly better than animals that received saline
- novel object recognition (preference index) 7 days after training [8, 15]: performed significantly better than animals that received saline
- novel object recognition (preference index) day 14 [8, 15]: A trend for enhanced performance
- long-term novel object recognition memory ([8]; NaB 45 min prior to novel object training, vs saline): enhances long-term novel object recognition memory
- acetylation of histone H3 [3, 16]: elevated
- amount of exon 7-containing SMN protein [9]: effective at increasing the amount of exon 7-containing survival motor neuron (SMN) protein
- expression of SMN protein in spinal cord motor neurons ([10]; SMA-like mice): increased expression of SMN protein in spinal cord motor neurons
- symptoms ([10]; SMA-like mice): improved symptoms
- birth rate of severe types of SMA-like mice ([10]; heterozygous knock-out transgenic SMA-like mice bred): decreased the birth rate of severe types of SMA-like mice
- passive avoidance memory (latency to enter dark side) 1 day after training [11, 17]: did not affect long-term passive avoidance memory
- passive avoidance memory (latency to enter dark side) 7 days after training [11, 17]: significant affects on passive avoidance memory
- passive avoidance memory (latency to enter dark side) 14 days after training [11, 17]: significant affects on passive avoidance memory
- long-term passive avoidance memory ([11]; NaB 45 min prior to passive avoidance training, vs saline): enhances long-term passive avoidance memory
- acetylation of histone H4 [5, 16]: elevated
